Measured values taken from US20230051589A1, “COMPOUNDS AND COMPOSITIONS FOR TREATING CONDITIONS ASSOCIATED WITH NLRP ACTIVITY” (Novartis AG, priority 2018, published 2023).

Tested on: IL-1β production in PMA-differentiated THP-1 cells
Assay: IL-1β production in PMA-differentiated THP-1 cells stimulated with gramicidin (hTHP-1 assay, 2% fetal bovine serum; Procedures 1-3)
Type: cell-based, human
Conditions: Homo sapiens, THP-1, hTHP-1 assay containing 2% fetal bovine serum, Table B2, class symbols; read-out: IC50
Description: The following protocol is suitable for testing the activity of the compounds disclosed herein.
Procedure 1: IL-1β Production in PMA-Differentiated THP-1 Cells Stimulated with Gramicidin.
THP-1 cells were purchased from the American Type Culture Collection and sub-cultured according to instructions from the supplier. Cells were cultured in complete RPMI 1640 (containing 10% heat inactivated FBS, penicillin (100 units/ml) and streptomycin (100 μg/ml)), and maintained in log phase prior to experimental setup. Prior to the experiment, compounds were dissolved in dimethyl sulfoxide (DMSO) to generate a 30 mM stock. The compound stock was first pre-diluted in DMSO to 3, 0.34, 0.042 and 0.0083 mM intermediate concentrations and subsequently spotted using Echo550 liquid handler into an empty 384-well assay plate to achieve desired final concentration (e.g. 100, 33, 11, 3.7, 1.2, 0.41, 0.14, 0.046, 0.015, 0.0051, 0.0017 μM). DMSO was backfilled in the plate to achieve a final DMSO assay concentration of 0.37%. The plate was then sealed and stored at room temperature until required.
THP-1 cells were treated with PMA (Phorbol 12-myristate 13-acetate) (20 ng/ml) for 16-18 hours. On the day of the experiment the media was removed and adherent cells were detached with trypsin for 5 minutes. Cells were then harvested, washed with complete RPMI 1640, spun down, and resuspended in RPMI 1640 (containing 2% heat inactivated FBS, penicillin (100 units/ml) and streptomycin (100 μg/ml). The cells were plated in the 384-well assay plate containing the spotted compounds at a density of 50,000 cells/well (final assay volume 50 μl). Cells were incubated with compounds for 1 hour and then stimulated with gramicidin (5 μM) (Enzo) for 2 hours. Plates were then centrifuged at 340 g for 5 min. Cell free supernatant (40 μL) was collected using a 96-channel PlateMaster (Gilson) and the production of IL-1β was evaluated by HTRF (cisbio). The plates were incubated for 18 h at 4° C. and read using the preset HTRF program (donor emission at 620 nm, acceptor emission at 668 nm) of the SpectraMax i3x spectrophotometer (Molecular Devices, software SoftMax 6). A vehicle only control and a dose titration of CRID3 (100-0.0017 μM) were run concurrently with each experiment.
Procedure 2: IL-1β Production in PMA-Differentiated THP-1 Cells Stimulated with Gramicidin.
THP-1 cells were purchased from the American Type Culture Collection and sub-cultured according to instructions from the supplier. Prior to experiments, cells were cultured in complete RPMI 1640 (containing 10% heat inactivated FBS, penicillin (100 units/ml) and streptomycin (100 μg/ml)), and maintained in log phase prior to experimental setup. Prior to the experiment THP-1 were treated with PMA (Phorbol 12-myristate 13-acetate) (20 ng/ml) for 16-18 hours. Compounds were dissolved in dimethyl sulfoxide (DMSO) to generate a 30 mM stock. On the day of the experiment the media was removed and adherent cells were detached with trypsin for 5 minutes. Cells were then harvested, washed with complete RPMI 1640, spun down, resuspended in RPMI 1640 (containing 2% heat inactivated FBS, penicillin (100 units/ml) and streptomycin (100 μg/ml) . The cells were plated in a 384-well plate at a density of 50,000 cells/well (final assay volume 50 μl). Compounds were first dissolved in assay medium to obtain a 5× top concentration of 500 μM. 10 step dilutions (1:3) were then undertaken in assay medium containing 1.67% DMSO. 5× compound solutions were added to the culture medium to achieve desired final concentration (e.g. 100, 33, 11, 3.7, 1.2, 0.41, 0.14, 0.046, 0.015, 0.0051, 0.0017 μM). Final DMSO concentration was at 0.37%. Cells were incubated with compounds for 1 hour and then stimulated with gramicidin (5 μM) (Enzo) for 2 hours. Plates were then centrifuged at 340 g for 5 min. Cell free supernatant (40 μL) was collected using a 96-channel PlateMaster (Gilson) and the production of IL-1β was evaluated by HTRF (cisbio). […]

Row | IC50 | Structure (SMILES)
1 | 5000 to 30000 nM | N[S@](=O)(=NC(=O)Nc1c2c(cc3c1CCC3)CCC2)c1ccc(C2CCNC2)cc1F (single isomer, unassigned) [Example 501, (S) or (R)-2-fluoro-N′-((1,2,3,5,6,7-hexahydro-s-indacen-4-yl)carbamoyl)-4-(pyrrolidin-3-yl)benzenesulfonimidamide]
2 | 200 to 1000 nM | N[S@@](=O)(=NC(=O)Nc1c2c(cc3c1CCC3)CCC2)c1ccc(C2CCNC2)cc1F (single isomer, unassigned) [Example 502, (R) or (S)-2-fluoro-N′-((1,2,3,5,6,7-hexahydro-s-indacen-4-yl)carbamoyl)-4-(pyrrolidin-3-yl)benzenesulfonimidamide]

Same assay, conditions: Table B1; hTHP-1 assay containing 2% fetal bovine serum, gramicidin stimulation, IL-1β readout; read-out: hTHP-1 IC50 (average)

Row | IC50 | Structure (SMILES)
3 | 200 to 1000 nM | CN(C)Cc1ccc(S(N)(=O)=NC(=O)Nc2c3c(cc4c2CCC4)CCC3)nc1 (single isomer, unassigned) [Example 413, (R) or (S)-5-((dimethyl-amino)methyl)-N′-((1,2,3,5,6,7-hexahydro-s-indacen-4-yl)carbamoyl)-pyridine-2-sulfonimid-amide]
4 | 40 to 200 nM | CC(C)(O)c1ncc(S(N)(=O)=NC(=O)Nc2cc3c(c4c2CCC4)CCC3)s1 (single isomer, unassigned) [Example 419, (R) or (S)-N′-((1,2,3,6,7,8-hexahydro-as-indacen-4-yl)carbamoyl)-2-(2-hydroxypropan-2-yl)thia-zole-5-sulfonimidamide]
5 | 8 to 40 nM | [2H]C1([2H])CCc2cc3c(c(NC(=O)N=S(N)(=O)c4cnc(C(C)(C)O)s4)c21)C([2H])([2H])CC3 (single isomer, unassigned) [Example 421, (R) or (S)-N′-((1,2,3,5,6,7-hexahydro-s-indacen-4-yl-3,3,5,5-d4)carbamoyl)-2-(2-hydroxypropan-2-yl)-thiazole-5-sulfonimidamide]
6 | 8 to 40 nM | [2H]C1([2H])CCc2c1cc1c(c2NC(=O)N=S(N)(=O)c2cnc(C(C)(C)O)s2)CCC1([2H])[2H] (single isomer, unassigned) [Example 423, (R) or (S)-N′-((1,2,3,5,6,7-hexahydro-s-indacen-4-yl-1,1,7,7-d4)carbamoyl)-2-(2-hydroxypropan-2-yl)-thiazole-5-sulfonimidamide]

Same assay, conditions: hTHP-1 assay containing 2% fetal bovine serum, Table B2, class symbols; read-out: IC50

Row | IC50 | Structure (SMILES)
7 | 40 to 200 nM | NS(=O)(=NC(=O)Nc1c2c(cc3c1CCC3)CCC2)c1cnn2c1OC[C@H](O)C2 (single isomer, unassigned) [Example 515, (R,6R) or (S,6R)-N′-((1,2,3,5,6,7-hexahydro-s-indacen-4-yl)carbamoyl)-6-hydroxy-6,7-dihydro-5H-pyrazolo[5,1-b] [1,3]oxazine-3-sulfonimidamide]
8 | 1000 to 5000 nM | NS(=O)(=NC(=O)Nc1c2c(cc3c1CCC3)CCC2)c1cnn2c1OC[C@H](O)C2 (single isomer, unassigned) [Example 516, (S,6R) or (R,6R)-N′-((1,2,3,5,6,7-hexahydro-s-indacen-4-yl)carbamoyl)-6-hydroxy-6,7-dihydro-5H-pyrazolo[5,1-b] [1,3]oxazine-3-sulfonimidamide]
9 | 5000 to 30000 nM | CN(C)Cc1cnc(S(N)(=O)=NC(=O)Nc2c3c(cc4c2CCC4)CCC3)c(F)c1 (single isomer, unassigned) [Example 517, (S) or (R)-5-((dimethylamino)methyl)-3-fluoro-N′-((1,2,3,5,6,7-hexahydro-s-indacen-4-yl)carbamoyl)pyridine-2-sulfonimidamide]

More lines, now with the values behind:

Row | Structure (SMILES) | IC50
10 | CC(C)(O)c1cc(F)c(S(N)(=O)=NC(=O)Nc2c3c(cc4c2CC4)CCC3)s1 (single isomer, unassigned) [Example 432] | 8 to 40 nM
11 | CC(C)(O)c1cc(F)c(S(N)(=O)=NC(=O)Nc2c3c(cc4c2CC4)CCC3)s1 (single isomer, unassigned) [Example 433] | 200 to 1000 nM
12 | Cc1c(C2CC2)cc2c(c1NC(=O)N=[S@@](N)(=O)c1cc(C(C)(C)O)cs1)CCC2 (single isomer, unassigned) [Example 498, (R) or (S)-N′-((6-cyclopropyl-5-methyl-2,3-dihydro-1H-inden-4-yl)carbamoyl)-4-(2-hydroxyprepan-2-yl)thiophene-2-sulfonimidamide] | 8 to 40 nM
